“And” between values parts separate entries of the source, which are not always exact repeats. Equal values may be shown once. Read-outs that look alike come from different tables or passages of the source. *1 amine or outer side, *2 acyl side, *3 side chain or, on linkers, in order; H or OH if unused. Where a SMILES comes first, the peptide text is derived from it. Bridges are numbered along the chain shown (N, C = ends). Roman numbers before positions name the chains, in order. [ ]: non-standard residue; d: D form. Actinocin(9to1) = Cc1c2oc3c(C)ccc(C(=O)[*:1])c3nc-2c(C(=O)[*:2])c(N)c1=O; NMeV = CN[C@H](C(=O)O)C(C)C; Sar = CNCC(=O)O
Tests used:
Type in all cases: cell-based
MCF-7 cells = assay: Cytotoxic assay, Adriamycin in sensitive human breast carcinoma MCF-7 cells; conditions: MCF-7 (sensitive); ADR; no chemosensitizer; 2880 min
Description: (§1) Cell Culture: HCT116/VM46 cells were selected from human colon carcinoma HCT116 cell line for resistance to VM26 and MCF-7/ADR cells were selected from human breast carcinoma MCF-7 cell line for resistance to Adriamycin. […] The cell lines were grown in tissue culture flasks containing McCoy's A medium and 10% fetal bovine serum. Cells were maintained at 37° C. in a humidified atmosphere containing 5% CO2 and subcultured every 5 days.
(§2) Cytotoxic Assay: The cells were seeded in 96 well microtiter plates at 5×10^3 cells per well and allowed to grow for 24 hours at 37° C. Cells were then incubated with decreasing amounts of antitumor agents: Adriamycin (100 μM, maximal concentration) or actinomycin D (17.6 ng/ml), for MCF-7 and HCT-116 cells, respectively. Chemosensitizers were added at variable concentrations ranging from 0.08 μM to 40 μM. In parallel, verapamil was used as positive control at the same concentrations. After 48 hours of incubation, the cells were washed, fixed and stained with crystal violet. Absorbance was read by Molecular Devices' microtiter plate reader at the wavelength of 595nm. The IC50 value (50% inhibition of cell growth) was determined from relative survival rates resulted from two to three independent experiments. […]

MCF-7/ADR cells = assay: Cytotoxic assay, MDR reversing effects of chemosensitizers with Adriamycin in human breast carcinoma MCF-7 resistant cells; conditions: for Fold Resistance: ADR; for IC50: read-out: ADR IC50
Description: as §1
(§3) Cytotoxic Assay: The cells were seeded in 96 well microtiter plates at 5×10^3 cells per well and allowed to grow for 24 hours at 37° C. Cells were then incubated with decreasing amounts of antitumor agents: Adriamycin (100 μM, maximal concentration) or actinomycin D (17.6 ng/ml), for MCF-7 and HCT-116 cells, respectively. Chemosensitizers were added at variable concentrations ranging from 0.08 μM to 40 μM. In parallel, verapamil was used as positive control at the same concentrations. After 48 hours of incubation, the cells were washed, fixed and stained with crystal violet. Absorbance was read by Molecular Devices' microtiter plate reader at the wavelength of 595nm. The IC50 value (50% inhibition of cell growth) was determined from relative survival rates resulted from two to three independent experiments. The term "fold resistance" was defined as the ratio of the IC50 for antitumor drug in the presence or absence of chemosensitizer in resistant cells divided by the IC50 for antitumor drug in its sensitive counterpart. This value provides an estimate of the apparent potency of each reversing agent in enhancing drug effect.

HCT-116/VM46 cells = assay: Cytotoxic assay, MDR reversing effects of chemosensitizers with actinomycin D in human colon carcinoma HCT-116 resistant cells; conditions: for Fold Resistance: ActD; for ActD IC50: 48 hours
Description: as §1, §3

HCT116 cells = assay: Cytotoxic assay, actinomycin D in sensitive human colon carcinoma HCT116 cells; conditions: no chemosensitizer
Description: as §1, §2

[1] = chemosensitizer 0.4 μM, IC50 ratio to sensitive HCT116

## COc1cccc2c1C(=O)c1c(O)c3c(c(O)c1C2=O)C[C@@](O)(C(=O)CO)C[C@@H]3O[C@H]1C[C@H](N)[C@H](O)[C@H](C)O1 [ADR, reference compound]
MCF-7 cells
  Fold Resistance: 1
MCF-7/ADR cells; no chemosensitizer, IC50 ratio to sensitive MCF-7, 2880 min
  Fold Resistance: 138.9
MCF-7/ADR cells; Homo sapiens, 48 h
  IC50: 50 µM

## Cc1c2oc3c(C)ccc(C(=O)N[C@@H]4C(=O)N[C@H](C(C)C)C(=O)N5CCC[C@H]5C(=O)N(C)CC(=O)N(C)[C@@H](C(C)C)C(=O)O[C@@H]4C)c3nc-2c(C(=O)N[C@@H]2C(=O)N[C@H](C(C)C)C(=O)N3CCC[C@H]3C(=O)N(C)CC(=O)N(C)[C@@H](C(C)C)C(=O)O[C@@H]2C)c(N)c1=O [ActD, reference compound] (I: T[dV]P[Sar][NMeV] / II: T[dV]P[Sar][NMeV]; ester I:1-I:C, II:1-II:C; linker I:N-II:N via Actinocin(9to1))
HCT-116/VM46 cells; no chemosensitizer, IC50 ratio to sensitive HCT116, 2880 min, 2880 min
  Fold Resistance: 15.6 and 20.0
HCT116 cells; ActD, 2880 min
  Fold Resistance: 1.0
HCT116 cells; 48 hours
  ActD IC50: 0.5 ng/mL

## CCN(CC)CCN1C(=O)c2cc(Cl)c(NC(=O)C(C)C)cc2Oc2cc(C(F)(F)F)ccc21 [Ii, N-[2-Chloro-10,11-dihydro-10-[2-(diethylamino)ethyl-11-oxo-7-(trifluoromethyl)dibenz[b.f]1,4]oxezpin-3-yl]-2-methylpropionamide]
HCT-116/VM46 cells; [1]
  Fold Resistance: 3.4
HCT-116/VM46 cells; chemosensitizer 0.4 μM
  ActD IC50: 1.7 ng/mL
MCF-7/ADR cells; chemosensitizer 0.67 μM, IC50 ratio to sensitive MCF-7
  Fold Resistance: 28.9
MCF-7/ADR cells; chemosensitizer 0.67 μM, 48 hours
  IC50: 10.4 µM

## C=C(CC)C(=O)c1ccc(OCC(=O)Nc2cc3c(cc2Cl)C(=O)N(CCN(CC)CC)c2ccc(C(F)(F)F)cc2O3)c(Cl)c1Cl [Io]
HCT-116/VM46 cells; [1]
  Fold Resistance: 3.6
HCT-116/VM46 cells; chemosensitizer 0.4 μM
  ActD IC50: 1.8 ng/mL

## CCN(CC)CCN1C(=O)c2cc(Cl)c(NC(=O)C3CCCC3)cc2Oc2cc(C(F)(F)F)ccc21 [Ip]
HCT-116/VM46 cells; chemosensitizer 0.24 μM, IC50 ratio to sensitive HCT116
  Fold Resistance: 3.4
HCT-116/VM46 cells; chemosensitizer 0.24 μM
  ActD IC50: 1.7 ng/mL

Reference: US5173486A, “Dibenz[b,f][1,4]oxazepin-11(10H)-ones for multidrug resistance reversing agents” (Bristol-Myers Squibb Company, priority 1991, dated 1992)
